Measured values taken from patent US20250275946A1, “COMBINATION THERAPY FOR THE TREATMENT OF CANCER” (UNM RAINFOREST INNOVATIONS, priority 2021, published 2025).
Where two headings read alike, the source gives them in different places.

Tests used:
[1] = test system: MC38 cells; experiment: Immunoblotting analysis in MC38 cells; type: cell-based, murine; conditions: MC38, 10 μM DFX and/or 10 μM 5-FU, 48 hours, FIG. 7Q
Procedure: (§1) Human HCT116, RKO, SW480, HEK293T and murine MC38 CRC cells were maintained at 37° C. in 5% CO2 and cultured in Dulbecco's modified Eagle medium (DMEM) supplemented with 10% fetal bovine serum (FBS) and 1% penicillin and streptomycin (VWR, Radnor, PA). HCT116 p53+/+ and p53−/− cells were a kind gift from Professor Bert Vogelstein at the Johns Hopkins University. For generating stable cell lines, MC38 cells were transfected with a mouse shTFRC plasmid (TRCN0000375695, Sigma, St. Louis, MO) or a mouse shPOLD1 plasmid (TRCN0000428858, Sigma), RKO cells were transfected with a human shPOLD1 plasmid (TRCN0000007924, Sigma) and selected with 1 μg/ml puromycin.
Cells and tumor tissues were lysed with radioimmunoprecipitation assay buffer. After incubation, cell extracts were centrifuged and the supernatant was collected for Bradford assay to quantify protein concentration by a BioTek Synergy HTX Multi-Mode Microplate Reader (BioTek, Winooski, VT). Equal amounts (20-50 μg) of protein were loaded for sodium dodecyl sulfate polyacrylamide gel electrophoresis (SDS-PAGE). The proteins inside the gels were transferred onto nitrocellulose membrane with a wet transfer method. The membranes were blocked with 3% milk for 1 hour. Primary antibodies were incubated overnight. Secondary antibodies were incubated for 1 hour. […]

[2] = test system: MC38 cells; experiment: MTT assay in MC38 cells; type: cell-based, murine; conditions: MC38, 10 μM DFX and/or 10 μM 5-FU, 48 hours, FIG. 7P
Procedure: as §1
(§2) Cells were plated at a concentration of 5×10^4 cells/mL in a 24 well plates. 125 μL 5 mg/mL MTT (Sigma, MO) was added to each plate and incubated for 30 min. Dimethyl sulfoxide (DMSO) was added and absorbance was measured at 570 nm using a BioTek Synergy HTX Multi-Mode Microplate Reader.

[3] = test system: xenografts from MC38 cells; experiment: Subcutaneous MC38 xenograft combination therapy in C57BL/6 mice; type: in vivo; conditions: 20 mg/kg DFX every other day, 1 mg/kg 5-FU daily, or combination, FIG. 7R
Procedure: For subcutaneous xenograft study, 1×10^6 syngeneic MC38 cells with Tfrc or Pold1 knockdown were injected into the flanks of C57BL/6 mice. Two weeks later, mice were sacrificed and tumors were collected. For combination therapy, when tumors are palpable at one week after subcutaneous injection of MC38 cells, C57BL/6 mice were treated with vehicle, 20 mg/kg DFX for every other day, 1 mg/kg 5-fluorouracil (5-FU) daily, or the combination of DFX and 5-FU.

[4] = test system: HCT116, SW480 or RKO cancer cells; experiment: Immunoblotting analysis in human colon-derived cancer cells; type: cell-based
Procedure: as §1
Cells and tumor tissues were lysed with radioimmunoprecipitation assay buffer. After incubation, cell extracts were centrifuged and the supernatant was collected for Bradford assay to quantify protein concentration by a BioTek Synergy HTX Multi-Mode Microplate Reader (BioTek, Winooski, VT). Equal amounts (20-50 μg) of protein were loaded for sodium dodecyl sulfate polyacrylamide gel electrophoresis (SDS-PAGE). The proteins inside the gels were transferred onto nitrocellulose membrane with a wet transfer method. The membranes were blocked with 3% milk for 1 hour. Primary antibodies were incubated overnight. Secondary antibodies were incubated for 1 hour. Antibodies for ferritin heavy chain (FTH1, #3998), IRP2 (#37135), active beta catenin (#8814), Anti-rabbit IgG HRP-linked Antibody (#7074) and Anti-mouse IgG HRP-linked Antibody (#7076) were from Cell signaling Technology (Danvers, MA). Primary antibodies for TFRC (sc-393719), HIF-1α, (sc-13515), HIF-2a (sc-13596), pS6 (sc-514033), pS6K (sc-8418), RRM2 (sc-398294), p-p53 (sc-377567), p53 (sc-6243), c-MYC (sc-40), GAPDH (sc-47724), Cyclin D1 (sc-718) and Actin (sc-8432) were from Santa Cruz Biotechnology (Dallas, TX). p-RPA2 (PA5-39809) was from Invitrogen (Carlsbad, CA). POLD1 (15646-1-AP), p-CHK1 (28805-1-AP), E2F1 (66515-1-Ig), Axin2 (20540-1-AP) and TNKS (18030-1-AP) were from Proteintech (Rosemont, IL).

[5] = test system: patient-derived tumor colonoids; experiment: RNA-seq analysis of patient-derived tumor colonoids treated with DFO; type: cell-based, human; conditions: DFO 100 μM in KGMG medium, 4 days
Procedure: The adenoma colonoids culture was described previously. See Xue, et al., Cell Metab, 2016; 24: pp. 447-461). The culture plates were placed in a 37° C. incubator for 30 min to solidify the Matrigel, followed by the addition of 1 mL serum-free Keratinocyte Growth Media Gold (KGMG, Catalogue: 00195769, Lonza, Basel, Switzerland). After 24 hours of plating, colonoids were treated with DFO (0 or 100 μM) in KGMG for 4 days with fresh media change every other day. At the end of the experiment, culture media was aspirated off, and colonoids were lysed with Trizol to extract RNA.
RNA sequencing libraries were prepared using the TruSeq RNA library prep kit v2 (Illumina) following the manufacturer's recommended protocol. The libraries were sequenced using single-end 50-cycle reads on a HiSeq 4000 sequencer (Illumina) at the University of Michigan DNA Sequencing Core Facility. Raw sequencing read quality was assessed utilizing FastQC. Reads were aligned to the reference human transcriptome (UCSC) using STAR 2.5.2a. Default parameters were used for the alignment, with the exception of “--outFilterMultimapNmax 10” and “--sjdbScore 2”. Expression quantification and differential expression analysis between DFO and control tumor colonoids were conducted using CuffDiff v 2.1.1 using default settings. […]

[6] = cited from earlier work
[7] = mice; cited from earlier work
[8] = test system: advanced hepatocellular carcinoma; conditions: cohort of 10 advanced hepatocellular carcinoma; cited from earlier work
[9] = test system: SW480 cells; experiment: MTT assay in SW480 cells; type: cell-based, human; conditions: 48 hours
Procedure: as §1, §2

[10] = humans; cited from earlier work
[11] = test system: B-family DNA polymerases; conditions: aphidicolin combined with CHK1 inhibitors; cited from earlier work
[12] = test system: cancer cells; conditions: cited from earlier work
[13] = test system: MC38 cells; experiment: Ferro-Orange staining of cellular ferrous iron; type: cell-based, murine; conditions: FIG. S6D
Procedure: Cells (2×10^5 cells/well) were plated into 24 well plates. After seeding, pre-warmed DMEM containing 0.5 μM ferroOrange (dojindo, Rockville, MD), was incubated at 37° C. for 30 min. After incubation, the cell images were taken. Representative images were taken using the RFP channel of an Invitrogen™ EVOS™ FL Auto Imaging System (Thermo Fisher Scientific, Waltham, MA). Fluorescence intensity was quantified using a SpectraMax M2 Microplate Reader (Molecular Devices, Radnor, PA) at excitation 543 nm and emission 580 nm. The intensity was normalized with protein concentrations.

Compound: O=c1[nH]cc(F)c(=O)[nH]1 [5-FU, 5-fluorouracil]
- DDR of DFX (immunoblotting) [1]: potentiated
- growth suppressive effect of DFX in vitro (MTT) [2]: potentiated
- growth suppressive effect of DFX in vivo (tumor weight) [3]: potentiated

Compound: CCc1ccc(/C=C2/SC(=S)NC2=O)cc1 [10058-F4]
- E2F1 and POLD1 protein ([4]; SW480 cells, c-Myc inhibitor overnight, FIG. S5G): reduced

Compound: CC(=O)N(O)CCCCCNC(=O)CCC(=O)N(O)CCCCCNC(=O)CCC(=O)N(O)CCCCCN [DFO, deferoxamine]
- decrease of POLD1 gene expression (RNA-seq) [5]: 4.31 fold
- decrease of RRM2 gene expression (RNA-seq) [5]: 3.28 fold
- circulation half-life ([6]; humans): approximately 20 min
- circulation half-life ([6]; in vivo): extremely short
- circulation half-life [7]: ~5 min
- severe adverse events [8]: without severe adverse events

Compound: COc1cccc(OCCCN)c1-c1cc(Nc2cnc(C#N)cn2)n[nH]1 [Prexasertib]
- synergistic effect on cell growth (MTT) ([9]; SW480, 10 μM DFO and/or 100 nM Prexasertib, FIG. S7F): synergistic effect was further validated

Compound: CNCc1ccc(-c2cc(-c3nc(-c4ccc(S(=O)(=O)C(C)C)cc4)cnc3N)on2)cc1 [VE-822]
- synergistic effect on cell growth (MTT) ([9]; SW480 and MC38 cells, 10 μM DFX, 10 uM VE-822 or 100 nM Prexasertib, FIG. S7G, S7H): synergistic effect was further validated

Compound: Oc1nc(-c2ccc(C(F)(F)F)cc2)nc2c1CSCC2 [XAV939]
- suppressive effect of DFO on c-Myc, E2F1, POLD1 and Cyclin D1 ([4]; SW480 cells, DFO and/or XAV939, FIG. 5N): potentiated
- expression of TNKS and Axin2 ([4]; SW480 cells, FIG. 5N): increased
- iron-repressed Axin2 ([4]; SW480 cells, FS and/or XAV939, FIG. 5O): rescued
- c-Myc, E2F1, POLD1 and Cyclin D1 protein ([4]; SW480 cells, even with iron supplementation, FIG. 5O): suppressed

Compound: C[C@@]1(CO)[C@H](O)CC[C@@]2(C)[C@H]1CC[C@H]1C[C@@H]3C[C@@]12CC[C@]3(O)CO [aphidicolin]
- toxicity [10]: too toxic to be used in humans
- cancer cell proliferation [11]: synergistic inhibition

Compound: c1ccc(CNC2CC(NCc3ccccn3)CC(NCc3ccccn3)C2)nc1 (stereo not drawn) [tachpyridine, N,N′,N″-tris(2-pyridylmethyl)-cis,cis-1,3,5-triaminocyclohexane]
- sensitivity to ionizing radiation induced DNA damage ([12]; cancer cells (not noncancer cells)): sensitizes cancer cells
- cell cycle ([12]; via ATR-dependent activation of CHK1): induces G2 cell cycle arrest

Compound: ferrous sulfate [FS]
- rescue of DFO-decreased POLD1 ([4]; HCT116 cells, 100 μM DFO and different doses of FS, FIG. 5E): can rescue
- orange fluorescence signal (cellular ferrous iron) [13]: greatly increased
